From patent US20160310454A1, “LIVER X RECEPTOR AGONISTS IN THE TREATMENT OF EMPHYSEMA” (priority 2013, published 2016)
Where a name gives a salt, the structure may show the parent alone.

Experiments:
[1] = tested on: mouse macrophages (bone marrow derived, ABCA1 fl/fl WT) treated with 5% CSE; test: Mouse macrophages treated with 5% CSE with or without LXR agonist (RT-PCR, Western blot, zymography); format: cell-based; conditions: bone marrow derived macrophages, 5% CSE, LXR agonist 10 μM
Protocol: To prepare cigarette (CSE), the smoke from one cigarette (1.1 mg of nicotine, 15 mg of tar) was passed through 25 mls of phosphate buffered saline (PBS) (Mercer et al., 2004). The pH of the extracted solution was adjusted to 7.4 and then filtered (Mercer et al., 2004). CSE was added to the media at concentrations up to 5% (vol/vol) (Mercer et al., 2004).
In these experiments both mouse peritoneal and mouse bone marrow derived macrophages (BMdM) were utilized. Mouse peritoneal macrophages were isolated from peritoneal cavities of 3% thioglycolate injected mice on the 5th day from injection. To compare expression of genes in vitro and in vivo peritoneal macrophages were isolated from mice exposed to room air and cigarette smoke. For in vitro analysis cells were seeded on culture plates for 24 h and then treated with CSE. For in vivo analysis cells were collected from peritoneal cavity and mRNA was directly isolated. Mouse BMdMs were obtained from the following mice: ABCA1 fl/fl in a C57/BL6 background. Briefly, mice were first sacrificed by CO2 asphyxiation followed by cervical dislocation. After sacrificing the mouse the legs were amputated and the excess muscle tissue was removed so as to completely expose the femur and tibia, which were cleaned carefully. These samples were left in sterile PBS for the duration of the procedure. The cavity bones were then flushed with 10 ml of PBS using 26G needle. The obtained cells were then counted (usually 100-150 million cells per mouse) and centrifuged for 5 min at 2600 rpm. Hematopoietic cells can be separated by plastic adhesion; therefore the cells were incubated in petri dishes containing DMEM culture media and supplemented with 10% FBS and 1% antibiotics). Non-adherent progenitor cells were then collected after 2 hours of incubation in culture media and then seeded at a concentration of 4 million cells/ml in fresh culture media, supplemented with L-cell conditioned media containing macrophage colony stimulating factor (M-CSF) at a concentration of 20%. Approximately after 7-10 days of plating the cells become fully differentiated into macrophages and were ready for subsequent experiments. After treatment the culture supernatants, proteins, and total RNA were collected for analysis. […]
Total RNA was extracted from specimens of lung tissue 0.3 cm^3 in size with the use of the RNeasy kit (Qiagen, Germantown, Md.) (Goldklang et al., 2012). The RNA was then further processed to obtain cDNA, which was used for Real Time (RT) PCR analysis. TaqMan gene expression assays (Applied Biosystems, Carlsbad, Calif.) were performed to assess gene-transcript levels with the use of an ABI Prism 7900HT Sequence Detection System (Applera, Foster City, Calif.) (Goldklang et al., 2012). The following primers were used to check the respective gene expression: ABCA1 (Hs01059118_m1), ABCG1 (Hs00245154_m1), MMP-9 (Mm00442991_m1), IL-1β (Mm00434227_g1), TNF-α (Mm00443260_g1) and GAPDH (4352932E) from TaqMan Gene Expression Assays, Applied Biosystems, CA. β-actin was used as a control since it is a housekeeping gene.
The lungs of mice (-10 mg) were homogenized in 1 ml of Radioimmunoprecipitation assay (RIPA) buffer, and centrifuged at 14,000 g for 10 min. The protein concentration of each sample was measured using a Bradford reagent. The required amount of each sample was then used for western blot analysis, so that the concentration was equal for all samples. Proteins were first separated on the basis of molecular weight via sodium dodecyl sulphate polyacrylamide gel electrophoresis (SDS-PAGE). The same gel was then transferred onto a nitro cellulose membrane with the help of electric current (or electroblotting) that transfers the protein from polyacrylamide gel to the membrane. This membrane was then incubated in the solution containing primary antibodies, specific for the proteins of interest, ABCA1 and ABCG1, followed by the use of a secondary antibody that allowed the detection of protein by chemiluminescent. […]

alveolar macrophages = conditions: in vitro; cited from earlier work
[2] = tested on: murine disease models of atherosclerosis; conditions: mouse, in vivo; cited from earlier work

| Compound | MMP9 expression (mRNA) after smoke exposure [1] | CXC10, CCL5, and IL-10 production (alveolar macrophages) | production of TNFα, IL-1β, or CXCL8 (alveolar macrophages) | cholesterol level in serum and liver [2] | development of atherosclerosis [2] |
| --- | --- | --- | --- | --- | --- |
| O=C(O)Cc1cccc(OCCCN(Cc2cccc(C(F)(F)F)c2Cl)CC(c2ccccc2)c2ccccc2)c1 [GW3965, 3-[3-[N-(2-Chloro-3-trifluoromethylbenzyl)-(2,2-diphenylethyl)amino]propyloxy]phenylacetic acid hydrochloride] | able to block | anti-inflammatory effects | did not significantly suppress | lowers | inhibits |
| CON(C)C(=O)CC[C@@H](C)[C@H]1CC[C@H]2[C@@H]3C[C@H](O)[C@@H]4C[C@H](O)CC[C@]4(C)[C@H]3CC[C@]12C [hypocholamide] |  |  |  | lowers | inhibits |
